According to paper PMC4409069 (PLoS ONE, 2015):
Where two headings read alike, the source gives them in different places. Ends that are not written are not given here.

Columns and labels:
[1] = tested on: hemagglutination activity of Phil82 IAV; test: Hemagglutination (HA) inhibition assay; type: biochemical, influenza A virus; details: concentrations up to 12μM, three experiments, human type O red cells
Experimental: HA inhibition was measured by serially diluting LL-37 peptides in round bottom 96 well plates (Serocluster U-Vinyl plates; Costar, Cambridge, MA) using PBS as a diluent and human type O red cells as described. 40 HA units of virus was used in the assay.

[2] = tested on: A/Philippines/2/82/H3N2 (Phil82); type: cell-based, influenza A virus; details: for IC50: read-out: approximate 50% viral neutralizing concentration
[3] = tested on: Mex 2:6 (HA and NA of A/Mexico/09/H1N1, other genes of NY01); type: cell-based, influenza A virus
[4] = tested on: neuraminidase (NA) activity of Phil82; type: biochemical, influenza A virus
[5] = tested on: NA activity of Cal09; type: biochemical, influenza A virus
[6] = tested on: Cal09; type: cell-based, influenza A virus
[7] = tested on: NY01; type: cell-based, influenza A virus
[8] = tested on: Mex 1:7 (HA gene of A/Mexico/4108/09/H1N1 with the other 7 genes of NY01); type: cell-based, influenza A virus
[9] = tested on: A/New York/312/01/H1N1 (NY01) seasonal strain; type: cell-based, influenza A virus
[10] = tested on: HBTE cells; test: LDH assay of cell viability, HBTE cells; type: cell-based, human; details: 24 hrs, mean±SEM of 3 or 4 experiments
[11] = tested on: MDCK cells; test: LDH assay of cell viability, MDCK cells; type: cell-based, canine; details: peptide 12.8 μM, 24 hrs, mean±SEM of 3 or 4 experiments
Experimental: The LDH assay was performed using LDH cytoxicity detection kit (Clontech, CA, USA) according to the manufacturer’s instructions. In brief, MDCK cells were incubated with Phil82 IAV (with or without LL-37 and related peptides). Cells were also incubated with peptides alone. The incubation time (24 hrs) and assay conditions were exactly same as in fluorescent focus assays. The LDH activity was measured after the 24 hrs incubation of cells with IAV and/or peptides. Controls included uninfected/untreated cells as negative control (NC) and cells treated with lysis solution as positive control (PC). The percent cytotoxicity is obtained from OD values using the formula: [(Sample OD—NC OD) ÷ (PC OD—NC OD)] ×100

[12] = tested on: A/California/04/09/H1N1 pandemic strain (Cal09); type: cell-based, influenza A virus
[13] = tested on: A/California/04/09/H1N1 pandemic strain (Cal09); type: cell-based, influenza A virus; remark: listed apart in the source
[14] = tested on: A/California/04/09/H1N1 pandemic strain (Cal09); type: cell-based, influenza A virus; remark: listed apart in the source
[15] = tested on: A/PR/8/34/H1N1 (PR-8); type: cell-based, influenza A virus
[16] = HBTE no IAV, peptide 12.8 μM, LL-23V9 n = 1, * significantly reduced vs control
[17] = HBTE+IAV (Phil82), peptide 12.8 μM, LL-23V9 n = 1, * significantly reduced vs control
[18] = read-out: approximate 50% viral neutralizing concentration

Question: `CC[C@H](C)[C@H](NC(=O)[C@H](CCCCN)NC(=O)[C@H](CCC(=O)O)NC(=O)[C@H](CCCCN)NC(=O)[C@H](CO)NC(=O)[C@H](CCCCN)NC(=O)[C@H](CCCNC(=N)N)NC(=O)[C@H](Cc1ccccc1)NC(=O)[C@H](Cc1ccccc1)NC(=O)[C@H](CC(=O)O)NC(=O)CNC(=O)[C@H](CC(C)C)NC(=O)[C@@H](N)CC(C)C)C(=O)NCC(=O)N[C@@H](CCCCN)C(=O)N[C@@H](CCC(=O)O)C(=O)N[C@@H](Cc1ccccc1)C(=O)N[C@@H](CCCCN)C(=O)N[C@@H](CCCNC(=N)N)C(=O)N[C@H](C(=O)N[C@H](C(=O)N[C@@H](CCC(N)=O)C(=O)N[C@@H](CCCNC(=N)N)C(=O)N[C@H](C(=O)N[C@@H](CCCCN)C(=O)N[C@@H](CC(=O)O)C(=O)N[C@@H](Cc1ccccc1)C(=O)N[C@@H](CC(C)C)C(=O)N[C@@H](CCCNC(=N)N)C(=O)N[C@@H](CC(N)=O)C(=O)N[C@@H](CC(C)C)C(=O)N[C@H](C(=O)N1CCC[C@H]1C(=O)N[C@@H](CCCNC(=N)N)C(=O)N[C@H](C(=O)N[C@@H](CCC(=O)O)C(=O)N[C@@H](CO)C(=O)O)[C@@H](C)O)C(C)C)[C@@H](C)CC)C(C)C)[C@@H](C)CC` [LL-37, reference compound] was tested. Which “inhibition of hemagglutination activity” value [1] did it give?
Answer: Its value is “No inhibition was observed”.

Question: What about the “antiviral (neutralizing) activity, in words” value (from here on “antiviral”) [2] of the same compound?
Answer: Its value is “clear dose-related antiviral activity”.

Question: What about the IC50 [2] of the same compound?
Answer: Its IC50 is roughly 2 µg/mL.

Question: What about the “effect on replication, in words” value [3] of the same compound?
Answer: Its value is “inhibited by LL-37 at the lower concentration of 2.2μM but higher concentrations of LL-37 were not inhibitory”.

Question: What about the “inhibition of NA activity, in words” value [4] of the same compound?
Answer: Its value is “neither LL-37 nor the related peptides inhibited NA activity”.

Question: What about the “inhibition of NA activity, in words” value [5] of the same compound?
Answer: Its value is “did not inhibit NA activity”.

Question: And the “viral RNA at 24 hrs after infection, in words” value [6]?
Answer: Its value is “trend to increase of Cal09 in the cells in presence of LL-37 but this was again highly variable and not statistically significant”.

Question: And the “viral uptake by MDCK cells (viral M protein RNA in cell lysate), in words” value [6]?
Answer: Its value is “no significant difference in viral uptake”.

Question: What about the “concentrations that significantly decreased viral RNA in supernatants and cells” value [7] of the same compound?
Answer: Its value is no less than 0.4 µM.

Question: And the “viral RNA at 24 hrs after infection, in words” value [7]?
Answer: Its value is “significant reduction in RNA of NY01 in both cells and supernatant”.

Question: And the “viral uptake by MDCK cells (viral M protein RNA), in words” value [7]?
Answer: Its value is “significant reduction of uptake”.

Question: And the “effect on replication, in words” value [8]?
Answer: Its value is “inhibited at all concentrations tested”.

Question: And the “effect on replication, in words” value [9]?
Answer: The value was “clear dose related inhibition”.

Question: What about the “% Viability of MDCK or HBTE Cells” value ([10]; HBTE no IAV, peptide 6.4 μM) of the same compound?
Answer: Its value is 95±2%.

Question: What about the “% Viability of MDCK or HBTE Cells” value [10, 16] of the same compound?
Answer: Its value is 57±6* %.

Question: And the “% Viability of MDCK or HBTE Cells” value ([10]; HBTE+IAV (Phil82), peptide 3.2 μM)?
Answer: The value was 105±4%.

Question: What about the “% Viability of MDCK or HBTE Cells” value ([10]; HBTE+IAV (Phil82), peptide 6.4 μM) of the same compound?
Answer: The value was 91±4%.

Question: What about the “% Viability of MDCK or HBTE Cells” value [10, 17] of the same compound?
Answer: The value was 55±6* %.

Question: And the “% Viability of MDCK or HBTE Cells” value ([11]; MDCK no IAV)?
Answer: The value was 92±11%.

Question: And the “% Viability of MDCK or HBTE Cells” value ([11]; MDCK+IAV (Phil82))?
Answer: The value was 99±12%.

Question: What about the “effect on replication, in words” value [12] of the same compound?
Answer: Its value is “only slight inhibition at intermediate doses of LL-37 and actual enhancement of the replication of this strain at higher doses”.

Question: With “HNP-1: the human defensin HNP-1 (human neutrophil peptide), purchased from Bachem [reference compound]” as the compound, how does the “effect on replication, in words” value [12] read?
Answer: Its value is “did inhibit Cal09”.

Question: Which “inhibition of hemagglutination activity” value [1] does the source give for LLGDFFRKVKEKIGKEFKRIVQR [LL-23V9] here?
Answer: Its value is “No inhibition was observed”.

Question: What about the “antiviral” value [2] of the same compound?
Answer: The value was “significantly increased activity compared to LL-23”.

Question: What about the “effect on infectivity, in words” value [13] of the same compound?
Answer: The value was “without activity”.

Question: What about the “effect on infectivity, in words” value [14] of the same compound?
Answer: Its value is “without activity”.

Question: What about the “% Viability of MDCK or HBTE Cells” value [10, 16] of the same compound?
Answer: The value was 103%.

Question: What about the “% Viability of MDCK or HBTE Cells” value [10, 17] of the same compound?
Answer: Its value is 99%.

Question: What about the “% Viability of MDCK or HBTE Cells” value ([11]; MDCK no IAV) of the same compound?
Answer: Its value is 112±6%.

Question: What about the “% Viability of MDCK or HBTE Cells” value ([11]; MDCK+IAV (Phil82)) of the same compound?
Answer: The value was 108±7%.

Question: And the “effect on replication, in words” value [12]?
Answer: Its value is “modest but statistically significant inhibition”.

Question: Which results are given for LLGDFFRKSKEKIGKEFKRIVQR [LL-23]?
Answer: inhibition of hemagglutination activity [1]: No inhibition was observed; antiviral (neutralizing) activity, in words [2]: slight antiviral activity; approximate 50% viral neutralizing concentration [2]: >32μg/ml (>11.3 μM); IC50 [2]: > 11.3 µM; effect on infectivity, in words [13]: without activity; effect on infectivity, in words [14]: without activity; approximate 50% viral neutralizing concentration [9]: >32μg/ml (>11.3 μM); IC50 [9, 18]: > 11.3 µM; % Viability of MDCK or HBTE Cells [10, 16]: 98±1%; % Viability of MDCK or HBTE Cells [10, 17]: 98±3%; % Viability of MDCK or HBTE Cells ([11]; MDCK no IAV): 105±4%; % Viability of MDCK or HBTE Cells ([11]; MDCK+IAV (Phil82)): 101±11%; approximate 50% viral neutralizing concentration [15]: >32μg/ml (>11.3 μM); IC50 [15, 18]: > 11.3 µM; effect on replication, in words [12]: modest but statistically significant inhibition

Question: With `CCOC(=O)C1=C[C@@H](OC(CC)CC)[C@H](NC(C)=O)[C@@H](N)C1` [Oseltamivir] as the compound, how does the “inhibition of NA activity, in words” value [4] read?
Answer: The value was “marked reduction of NA activity”.

Question: How did the “inhibition of hemagglutination activity” value [1] turn out when GIKEFKRIVQRIKDFLRNLV-NH2 [GI-20] was run?
Answer: Its value is “No inhibition was observed”.

Question: What about the “antiviral” value [2] of the same compound?
Answer: The value was “approached or equaled that of full length LL-37”.

Question: And the “effect on infectivity, in words” value [13]?
Answer: Its value is “significant inhibition”.

Question: And the “effect on infectivity, in words” value [14]?
Answer: Its value is “significant inhibition”.

Question: What about the “% Viability of MDCK or HBTE Cells” value [10, 16] of the same compound?
Answer: The value was 103±3%.

Question: And the “% Viability of MDCK or HBTE Cells” value [10, 17]?
Answer: The value was 104±3%.

Question: And the “% Viability of MDCK or HBTE Cells” value ([11]; MDCK no IAV)?
Answer: The value was 103±7%.

Question: What about the “% Viability of MDCK or HBTE Cells” value ([11]; MDCK+IAV (Phil82)) of the same compound?
Answer: Its value is 107±3%.

Question: And the “effect on replication, in words” value [12]?
Answer: The value was “significant inhibition”.

Question: For CRAMP [reference compound], which “effect on replication, in words” value [3] is on record?
Answer: The value was “did not significantly inhibit”.

Question: And the “effect on replication, in words” value [8]?
Answer: The value was “inhibited (albeit modestly)”.

Question: And the “effect on replication, in words” value [9]?
Answer: The value was “inhibited (albeit modestly)”.

Question: What about the “effect on replication, in words” value [12] of the same compound?
Answer: The value was “did not significantly inhibit”.
